{"source": "patent US12485182B2", "about": "“Proteoglycan mimetics for enhanced wound healing, angiogenesis, and vascular repair” (The Regents of the University of California, priority 2018, dated 2025)", "key": {"EC": {"test_system": "EC", "experiment": "EC migration on collagen surfaces", "assay_type": "cell-based"}, "[1]": {"test_system": "platelets (platelet-rich plasma)", "experiment": "Platelet binding under flow on collagen-coated microchannels", "assay_type": "cell-based", "details": "PRP, shear rate 750 s^−1, 4 minutes", "method": "Flow kits from Ibidi (Martinsried, Germany) were used to measure […] recruitment under flow conditions. Microchannels were coated with equine fibrillar type I collagen (Chronolog, Havertown, PA) diluted in 0.85% sodium chloride and incubated for one hour at room temperature. Unbound collagen was removed by rinsing three time with 1×PBS. The treatment molecule (DS-SILY, LXW7-DS-SILY, or LXW7-(SILY)2) was incubated in the channel for 30 minutes at room temperature, and unbound peptidoglycan was rinsed with 1× PBS.\nNext, 15 mL of blood was drawn into sodium citrate vacutainers by venipuncture and centrifuged for 20 minutes at 200 Gs and 37° C. and the top layer of platelet-rich plasma (PRP) was collected. A syringe pump was used to flow PRP through microchannels at 4.2 mL/hr for a shear rate of 750 s^−1. After 4 minutes, the channels were rinsed with 100 μL, PBS to remove unbound cells. Adherent cells were stained with 10 μM CellTracker Green (ThermoFisher Scientific) in media for 30 minutes at 37° C. Channels were rinsed with 1× PBS and total fluorescence and cell number in the channels were quantified using ImageJ (NIH, Bethesda, MD)."}, "collagen": {"test_system": "collagen", "experiment": "DS-SILY binding to collagen"}, "denuded arteries [2]": {"test_system": "denuded arteries", "experiment": "Ossabaw pig angioplasty model, neointimal hyperplasia (1-month recovery)", "assay_type": "in vivo", "details": "with and without stents, vs sham", "method": "An In vivo Ossabaw pig angioplasty model was used to assess platelet deposition (acute) and neointimal hyperplasia (1-month recovery) with DS-SILY treatment. Porous angioplasty balloons were employed for delivery of soluble DS-SILY to the target arteries in the peripheral vasculature of pigs. Renal, femoral, and iliac arteries were denuded by balloon expansion, followed by delivery through the porous balloon. Arteries were treated with and without the use of a bare metal stent and the healing response was assessed for neointimal hyperplasia. Neointimal hyperplasia was assessed by histology after 1-month recovery by measuring the distance between the internal elastic lamina and the lumen, or between a stent post and the lumen (FIG. 32)."}, "platelets": {"test_system": "platelets", "experiment": "Platelet binding and activation on a collagen surface in vitro", "assay_type": "cell-based"}, "denuded arteries [3]": {"test_system": "denuded arteries", "experiment": "Ossabaw pig angioplasty model, platelet deposition (acute)", "assay_type": "in vivo", "details": "vs saline", "method": "An In vivo Ossabaw pig angioplasty model was used to assess platelet deposition (acute) and neointimal hyperplasia (1-month recovery) with DS-SILY treatment. Porous angioplasty balloons were employed for delivery of soluble DS-SILY to the target arteries in the peripheral vasculature of pigs. Renal, femoral, and iliac arteries were denuded by balloon expansion, followed by delivery through the porous balloon. Arteries were treated with and without the use of a bare metal stent and the healing response was assessed for neointimal hyperplasia.\nArteries for assessing the acute response of balloon injury were harvested within hours of angioplasty. The arteries were rinsed with saline and fixed in 10% formalin overnight, and prepared for SEM visualization. […] High magnification images in FIG. 31 show numerous projections and spreading of platelets on sham control arteries, indicative of platelet activation."}, "SMCs": {"test_system": "SMCs", "experiment": "DS-SILY effects on SMCs", "assay_type": "cell-based"}}, "note": "Entries after “also recorded” stand apart in the source; their conditions may differ. No end group written: not given here."}
{"substance": "DS-SILY: antithrombotic proteoglycan mimetic; dermatan sulfate with collagen-binding SILY peptides (RRANAALKAGELYKSILYGSG; not fully specified; also: conjugated to dermatan sulfate backbone, attachment not given here)", "values": [{"measurement": "promotion of EC migration compared to control collagen surfaces", "setting": "EC", "value": "up to 32%"}, {"measurement": "platelet binding under flow", "setting": "[1]", "value": "low platelet binding"}, {"measurement": "binding to collagen", "setting": "collagen", "value": "high affinity"}, {"measurement": "neointimal hyperplasia", "setting": "denuded arteries [2]", "value": "minimal intimal hyperplasia is observed"}, {"measurement": "inhibition of platelet binding and activation on a collagen surface", "setting": "platelets", "value": "~90", "unit": "%"}, {"measurement": "platelet activation (morphology) on denuded artery", "setting": "denuded arteries [3]; SEM", "value": "remained largely rounded"}, {"measurement": "platelet binding on denuded artery", "setting": "denuded arteries [3]; delivery through porous balloon after balloon angioplasty", "value": "platelets are scarcely found on the denuded artery; also recorded: almost completely inhibited platelet binding"}, {"measurement": "SMC migration and proliferation", "setting": "SMCs", "value": "suppresses SMC migration and proliferation"}, {"measurement": "inflammatory cytokine production", "setting": "SMCs", "value": "suppresses inflammatory cytokine production"}, {"measurement": "protein production by SMCs", "setting": "SMCs", "value": "suppresses, but does not eliminate protein production by SMCs"}]}
